From patent US20230066946A1, “1,5-DIPHENYLPYRAZOLYL-3-OXYALKYL ACIDS AND 1-PHENYL-5-THIENYLPYRAZOLYL-3-OXYALKYL ACIDS AND THE USE THEREOF FOR CONTROL OF UNWANTED PLANT GROWTH” (Bayer Aktiengesellschaft, priority 2019, published 2023)

Tests used:
[1] = tested on: STEME; experiment: Pre-emergence herbicidal action against STEME; assay type: in vivo, Stellaria media; details: scored visually after about 3 weeks vs untreated controls
Procedure, shortened: (§1)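 Visual percent activity (100% = plants dead, 0% = like control) scored about 3 weeks after pre-emergence treatment in greenhouse. Compounds as WP or EC, applied to covering soil surface with 0.5% additive, 600 L/ha water, at 1280 or 320 g/ha.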

[2] = tested on: HORMU; experiment: Post-emergence herbicidal action against HORMU; assay type: in vivo, Hordeum murinum; details: 320 g/ha, visual rating about 3 weeks after treatment
Description: (§2) [table] Seeds of mono- and dicotyledonous weed plants are placed in plastic pots in sandy loam soil (twin sowing with one species each of mono- or dicotyledonous weed plants per pot), covered with soil and cultivated in a greenhouse under controlled growth conditions. 2 to 3 weeks after sowing, the test plants are treated at the one-leaf stage. The compounds of the invention, formulated in the form of wettable powders (WP) or as emulsion concentrates (EC), are applied to the green parts of the plants as aqueous suspension or emulsion with addition of 0.5% additive at a water application rate equivalent to 600 litres per hectare. After the test plants have been kept in the greenhouse under optimum growth conditions for about 3 weeks, the activity of the preparations is rated visually in comparison to untreated controls. For example, 100% activity=the plants have died, 0% activity=like control plants. Tables 5.1-5.16 below show the effects of selected compounds of the general formula (I) according to Tables 1 to 3 on various harmful plants at an application rate corresponding to 1280 or 320 g/ha, which have been obtained by the aforementioned experimental method.

[3] = tested on: SETVI; experiment: Pre-emergence herbicidal action against SETVI; assay type: in vivo, Setaria viridis; details: 1280 g/ha, scored visually after about 3 weeks vs untreated controls
Procedure, shortened: as §1

[4] = tested on: harmful plants; experiment: Pre-emergence herbicidal action, summary of Tables 4.1-4.15; assay type: in vivo; details: result in words
Procedure, shortened: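 Percent herbicidal action (100% = plants dead, 0% = like controls) was assessed visually about 3 weeks after treatment. Application rates of 1280 or 320 g/ha were applied to the covering soil of freshly sown sandy-loam pots, in 600 l/ha water with 0.5% additive, before emergence.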

[5] = tested on: VIOTR; experiment: Post-emergence herbicidal action against VIOTR; assay type: in vivo, Viola tricolor; details: 320 g/ha, visual rating about 3 weeks after treatment
Procedure, shortened: (§3)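 Greenhouse, sandy loam, one-leaf stage; compound as WP/EC at 1280 or 320 g/ha plus 0.5% additive (600 L/ha). Visual % activity at ~3 weeks relative to untreated plants.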

[6] = tested on: POLCO; experiment: Post-emergence herbicidal action against POLCO; assay type: in vivo, Polygonum convolvulus; details: 320 g/ha, visual rating about 3 weeks after treatment
Procedure, shortened: as §3

[7] = tested on: ECHCG; experiment: Pre-emergence herbicidal action against ECHCG; assay type: in vivo, Echinochloa crus-galli; details: scored visually after about 3 weeks vs untreated controls, 100% = plants have died, 0% = like control plants
Procedure, shortened: as §1

[8] = tested on: AMARE; experiment: Pre-emergence herbicidal action against AMARE; assay type: in vivo, Amaranthus retroflexus; details: scored visually after about 3 weeks vs untreated controls; for Pre-emergence action at 320 g/ha against AMARE in %: 100% = plants have died, 0% = like control plants; for Pre-emergence action against AMARE in %: 1280 g/ha
Procedure, shortened: as §1

[9] = tested on: STEME; experiment: Post-emergence herbicidal action against STEME; assay type: in vivo, Stellaria media; details: visual rating about 3 weeks after treatment
Procedure, shortened: as §3

[10] = tested on: AMARE; experiment: Post-emergence herbicidal action against AMARE; assay type: in vivo, Amaranthus retroflexus; details: visual rating about 3 weeks after treatment
Procedure, shortened: as §3

[11] = tested on: HORMU; experiment: Pre-emergence herbicidal action against HORMU; assay type: in vivo, Hordeum murinum; details: 320 g/ha, scored visually after about 3 weeks vs untreated controls
Description: (§4) Seeds of mono- and dicotyledonous weed plants are placed in plastic pots in sandy loam soil (doubly sown with one species each of mono- or dicotyledonous weed plants per pot) and covered with soil. The compounds of the invention, formulated in the form of wettable powders (WP) or as emulsion concentrates (EC), are then applied onto the surface of the covering soil as aqueous suspension or emulsion with addition of 0.5% additive at a water application rate equivalent to 600 litres per hectare. After the treatment, the pots are placed in a greenhouse and kept under good growth conditions for the trial plants. After about 3 weeks, the effect of the preparations is scored visually in comparison with untreated controls as percentages. For example, 100% activity=the plants have died, 0% activity=like control plants. [table] Tables 4.1-4.15 below show the effects of selected compounds of the general formula (I) according to Tables 1 to 3 on various harmful plants at an application rate corresponding to 1280 or 320 g/ha, which have been obtained by the aforementioned experimental method.

[12] = tested on: POLCO; experiment: Pre-emergence herbicidal action against POLCO; assay type: in vivo, Polygonum convolvulus; details: 320 g/ha, scored visually after about 3 weeks vs untreated controls
Procedure, shortened: as §1

[13] = tested on: MATIN; experiment: Post-emergence herbicidal action against MATIN; assay type: in vivo, Matricaria inodora; details: visual rating about 3 weeks after treatment
Procedure, shortened: as §3

[14] = tested on: VERPE; experiment: Pre-emergence herbicidal action against VERPE; assay type: in vivo, Veronica persica; details: 320 g/ha, scored visually after about 3 weeks vs untreated controls
Procedure, shortened: as §1

[15] = tested on: VERPE; experiment: Post-emergence herbicidal action against VERPE; assay type: in vivo, Veronica persica; details: 320 g/ha, visual rating about 3 weeks after treatment
Procedure, shortened: as §3

[16] = tested on: ECHCG; experiment: Post-emergence herbicidal action against ECHCG; assay type: in vivo, Echinochloa crus-galli; details: 1280 g/ha, post-emergence at one-leaf stage, rated visually after about 3 weeks vs untreated controls
Procedure, shortened: as §3

[17] = tested on: LOLRI; experiment: Post-emergence herbicidal action against LOLRI; assay type: in vivo, Lolium rigidum; details: 1280 g/ha, post-emergence at one-leaf stage, rated visually after about 3 weeks vs untreated controls
Description: as §2

[18] = tested on: PHBPU; experiment: Post-emergence herbicidal action against PHBPU; assay type: in vivo, Pharbitis purpurea; details: 320 g/ha, visual rating about 3 weeks after treatment
Procedure, shortened: as §3

[19] = tested on: CYPES; experiment: Pre-emergence herbicidal action against CYPES; assay type: in vivo, Cyperus esculentus; details: scored visually after about 3 weeks vs untreated controls, 100% = plants have died, 0% = like control plants
Procedure, shortened: as §1

[20] = tested on: AVEFA; experiment: Pre-emergence herbicidal action against AVEFA; assay type: in vivo, Avena fatua; details: scored visually after about 3 weeks vs untreated controls, 100% = plants have died, 0% = like control plants
Description: as §4

[21] = tested on: AVEFA; experiment: Post-emergence herbicidal action against AVEFA; assay type: in vivo, Avena fatua; details: 1280 g/ha, post-emergence at one-leaf stage, rated visually after about 3 weeks vs untreated controls
Description: as §2

[22] = tested on: ALOMY; experiment: Pre-emergence herbicidal action against ALOMY; assay type: in vivo, Alopecurus myosuroides; details: scored visually after about 3 weeks vs untreated controls, 100% = plants have died, 0% = like control plants
Description: as §4

[23] = tested on: ALOMY; experiment: Post-emergence herbicidal action against ALOMY; assay type: in vivo, Alopecurus myosuroides; details: 1280 g/ha, post-emergence at one-leaf stage, rated visually after about 3 weeks vs untreated controls
Procedure, shortened: as §3

[24] = tested on: SETVI; experiment: Post-emergence herbicidal action against SETVI; assay type: in vivo, Setaria viridis; details: 1280 g/ha, post-emergence at one-leaf stage, rated visually after about 3 weeks vs untreated controls
Procedure, shortened: as §3

[25] = tested on: MATIN; experiment: Pre-emergence herbicidal action against MATIN; assay type: in vivo, Matricaria inodora; details: 1280 g/ha, scored visually after about 3 weeks vs untreated controls
Procedure, shortened: as §1

[26] = tested on: VIOTR; experiment: Pre-emergence herbicidal action against VIOTR; assay type: in vivo, Viola tricolor; details: 1280 g/ha, scored visually after about 3 weeks vs untreated controls
Procedure, shortened: as §1

Row | Compound | Pre-emergence action against STEME in % ([1]; 320 g/ha) | Pre-emergence action against STEME in % ([1]; 1280 g/ha) | Post-emergence action against HORMU in % [2] | Pre-emergence action against SETVI in % [3] | herbicidal efficacy against harmful plants in the case of pre-emergence treatment [4] | Post-emergence action against VIOTR in % [5] | Post-emergence action against POLCO in % [6] | Pre-emergence action at 1280 g/ha against ECHCG in % [7] | Pre-emergence action at 320 g/ha against AMARE in % [8] | Pre-emergence action against AMARE in % [8] | Post-emergence action against STEME in % ([9]; 320 g/ha) | Post-emergence action against STEME in % ([9]; 1280 g/ha) | Post-emergence action against AMARE in % ([10]; 320 g/ha) | Pre-emergence action against HORMU in % [11] | Pre-emergence action against POLCO in % [12] | Post-emergence action against MATIN in % ([13]; 320 g/ha) | Post-emergence action against MATIN in % ([13]; 1280 g/ha) | Pre-emergence action against VERPE in % [14] | Post-emergence action against VERPE in % [15] | Post-emergence action against AMARE in % ([10]; 1280 g/ha) | other results
1 | CC(Oc1nn(-c2ccccc2)c(-c2ccc(F)cc2)c1Cl)C(=O)O (centres unmarked) [I-139] | 100% | 100% | 80% | 100% | good herbicidal efficacy | 80% | 90% | 100% | 100% | 100% | 80% | 90% | 90% | 90% | 90% | 80% | 90% | 100% | – | – | –
2 | COC(=O)[C@@H](C)Oc1nn(-c2ccccc2)c(-c2ccc(F)cc2)c1C#N [I-130] | 90% | 100% | 80% | 100% | – | 90% | 90% | 100% | 100% | 100% | 90% | 100% | 90% | 100% | 90% | 90% | 90% | 100% | 90% | 90% | Post-emergence action against ECHCG in % [16]: 100%; Post-emergence action against LOLRI in % [17]: 90%
3 | CCOC(=O)COc1nn(-c2ccccc2)c(-c2ccc(F)cc2)c1Br [I-056] | – | 100% | – | 100% | good herbicidal efficacy | – | 80% | – | 80% | 100% | – | 90% | 80% | 80% | 80% | 80% | 80% | – | 90% | 80% | Post-emergence action against PHBPU in % [18]: 80%; Pre-emergence action at 1280 g/ha against CYPES in % [19]: 90%; Pre-emergence action at 1280 g/ha against AVEFA in % [20]: 80%; Post-emergence action against AVEFA in % [21]: 90%; Pre-emergence action at 1280 g/ha against ALOMY in % [22]: 90%; Post-emergence action against ALOMY in % [23]: 90%; Post-emergence action against SETVI in % [24]: 80%; Pre-emergence action against MATIN in % [25]: 90%; Pre-emergence action against VIOTR in % [26]: 80%
